Measured values from patent US20050233377A1, “Drug screening method for the treatment of brain damage” (priority 2004, published 2005).

Legend:
[1] = type: physicochemical
Excerpt: Both compounds were therefore dissolved in DMSO for the NMR titration experiments.

[2] = biological target: T1, PDZ2 of PSD-95 (Rattus norvegicus, UniProt P31016); test: NMR chemical shift perturbation assay (1H-15N HSQC) of binding to 15N-labeled PDZ2; settings: for structural perturbation of PDZ2 (chemical shift of amide groups of Ser 173 and Ala 231 normalized to maximal shift with crude extract = 100%): 10-fold excess of compound relative to PDZ2
T1 construct: His tag (N); made in house; host or cells: Escherichia coli BL21 (DE3), pET14b
Procedure: In this specific non-limiting example, the PDZ-domain of recombinant PSD-95 was uniformly labeled with ^15N using the recombinant protein production method described. The ^15N-labeled PSD-95 was expressed in and purified from E. coli bacterial cells. The NMR spectra was acquired at 30° C. on Varian Inova 500 or 750 spectrometers each equipped with a 5 mm z-shielded gradient triple resonance probes. Lyophilized ^15N-labeled PDZ2 protein dissolved in 100 mM potassium phosphate buffer at pH 6.0, with a pure recombinant protein concentration of ˜0.1-0.2 mM (typically 0.5 ml in 100 mM phosphate buffer) for spectral analysis.
Since the identity of every resonances of the ^1H-^15N HSQC spectrum of PSD-95 PDZ domains is known, and the three dimensional structures of the PSD-95 PDZ domains could be elucidated, the quantitative values of compound-induced chemical shift changes for each amino acid residues of PSD-95 PDZ2 were computed using the equation: Δppm=[(ΔδHN)^2+(ΔδN·αN)^2]^1/2
The scaling factor αN used to normalize ^1H and ^15N chemical shifts was 0.17. ΔδHN corresponded to the change of the ^15N-bonded hydrogen chemical shift of a specific resonance, while ΔδN corresponded to the change of the ^15N chemical shift of that resonance.
In this method, the PDZ domain of PSD-95 is expressed recombinantly as described in Example 1 and uniformly labeled with ^15N using a recombinant protein production method. […]
Using preparation techniques mentioned above, a ^1H,^15N HSQC spectrum was recorded for each mixture of bound PDZ2 protein, and compared with the ^1H,^15N HSQC spectrum of free PSD-95 PDZ2 (˜0.1 mM in the same buffer). […]
The observation of chemical shift changes (with respect to the free PDZ2) as a result of mixing the protein with the herbal mixtures or pure compounds was scored as positive binding of compound(s) to PDS-95 PDZ2. […]
The binding affinity of the compounds to PDZ2 of PSD-95 was quantified by normalizing the chemical shift of the amide groups of Ser 173 and Ala 231 in relation to the maximal shift of these groups upon incubation with the crude extract (100%). […]

T1 sequence (P31016 156-249): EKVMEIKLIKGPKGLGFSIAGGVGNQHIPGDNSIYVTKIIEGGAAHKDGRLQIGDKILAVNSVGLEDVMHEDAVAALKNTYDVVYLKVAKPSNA

Row | SMILES | solubility in H2O [1] | structural perturbation of PDZ2 (chemical shift of amide groups of Ser 173 and Ala 231 normalized to maximal shift with crude extract = 100%) [2] | chemical shift changes of PSD-95 PDZ2 HSQC spectrum relative to free PDZ2 (scored as positive binding) ([2]; 15N-labeled PDZ2 0.1-0.2 mM, 100 mM phosphate buffer pH 6.0)
1 | O=C(O)[C@H]1O[C@@H](Oc2cc3oc(-c4ccccc4)cc(=O)c3c(O)c2O)[C@H](O)[C@@H](O)[C@@H]1O [baicalin] | very poor solubility | around 60% | significant chemical shift changes
2 | O=C(O)[C@H]1O[C@@H](Oc2cc(O)c3c(=O)cc(-c4ccccc4)oc3c2O)[C@H](O)[C@@H](O)[C@@H]1O [norwogonoside] | – | around 60% | –
3 | COc1c(O[C@@H]2O[C@H](C(=O)O)[C@@H](O)[C@H](O)[C@H]2O)cc(O)c2c(=O)cc(-c3ccccc3)oc12 [wogonoside] | very poor solubility | – | –
